Source: the NIST ThermoML archive (doi:10.1016/j.jct.2018.01.014)
Where “and” joins values, the source holds several entries; their conditions need not be identical. Identical values can stand only once.

Settings: Liquid, Transpiration method

CN1CCC[C@H]1c1cccnc1 [(-)-3-(N-methylpyrrolidino)pyridine]
Settings	vapor or sublimation pressure
288.7 K	0.002398 kPa
293.8 K	0.003508 kPa
298.5 K	0.005519 kPa
303.3 K	0.008212 kPa
308.2 K	0.01232 kPa and 0.01187 kPa
313.1 K	0.01822 kPa
318.1 K	0.02642 kPa
323 K	0.03648 kPa
327.9 K	0.05164 kPa
333.2 K	0.07337 kPa
335.7 K	0.08301 kPa
338.2 K	0.1012 kPa
340.7 K	0.1124 kPa
343.1 K	0.1387 kPa
345.6 K	0.1639 kPa
348.2 K	0.2061 kPa
350.6 K	0.222 kPa
353.2 K	0.2733 kPa
358.1 K	0.3726 kPa
363.2 K	0.5077 kPa
368.1 K	0.6692 kPa
373.1 K	0.8635 kPa
